Four compounds from publication PMC8991199, “Promiscuity mapping of the S100 protein family using a high-throughput holdup assay” (Scientific Reports, 2022) can be followed below.

Entries after “also recorded” stand apart in the source; their conditions may differ.

Holding throughout (format): binding
The target in test [1] is T1, S100A1 (Homo sapiens, UniProt P23297).
T1 sequence (P23297 1-94): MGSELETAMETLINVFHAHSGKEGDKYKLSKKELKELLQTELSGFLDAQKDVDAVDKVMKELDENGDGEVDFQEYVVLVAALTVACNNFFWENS
The experiment in a line: direct fluorescence polarization (FP), S100A1. The settings on record: S100A1, 50 nM labeled foldamer, 20 mM HEPES pH 7.5, 150 mM NaCl, 1 mM CaCl2, 0.5 mM TCEP, 0.01% Tween20, quadratic fit, mean ± SEM, three technical repeats, threshold 1 mM. The text has this: (§1) HTP (and also low-throughput) measurements generally need to be validated by an orthogonal approach to eliminate experimental artifacts. […] In this assay, the association of the fluorescently labeled foldamer and the S100 protein of interest is monitored, through the change in polarization of the emitted light by the fluorophore upon the binding event. In direct FP, the presence of the fluorophore might change the binding affinity of some foldamers. […] Nevertheless, we assumed that the fluorophore would affect all foldamers that target the same binding site to the same degree, because the foldamer scaffold is rigid.
(§2) Briefly, S100 proteins were cloned into a modified pET15b vector with a TEV protease cleavable N-terminal His6-tag and expressed in Escherichia coli BL21 (DE3) cells, followed by Ni^2+-affinity chromatography. For HU assay, S100 proteins were further purified by either hydrophobic interaction chromatography or ion exchange chromatography without the cleavage of the N-terminal His6-tag applying standard conditions. For direct FP measurements, the N-terminal His6-tag was cleaved, and the S100 proteins were purified by hydrophobic interaction chromatography, ion exchange chromatography or size exclusion chromatography. The quality of the recombinant proteins was checked by SDS-PAGE analysis in all cases. The concentration of the recombinant S100 proteins was determined by UV spectrophotometry using the absorbance of Tyr and Trp residues.
(§3) In direct fluorescence polarization assays, S100 proteins were diluted in a buffer containing 50 nM labeled foldamer, 20 mM HEPES pH 7.5, 150 mM NaCl, 1 mM CaCl2, 0.5 mM TCEP and 0.01% Tween20. The dilution series (50 µl) were divided into three technical repeats and transferred (15 µl) to a 384-well microplate. In competitive fluorescence polarization assays, the buffer applied in direct measurements was supplemented with the S100 protein of interest to reach a saturation of 60–80%. This mixture was titrated with the competitor (i.e. the unlabeled peptide). Fluorescence polarization was measured in 8 different S100 concentrations (one of which contained no S100 protein) on a Synergy H4 plate reader using 485 ± 20 nm and 528 ± 20 nm band-pass filters for excitation and emission, respectively. The Kd values were obtained by fitting the data from the FP measurements with the python-based ProFit software using quadratic and competitive binding equation for direct and competitive FP, respectively. The detection threshold was based on two parameters. First, we rejected all fitted dissociation constants above 1 mM.

For test [2], the target named is S100A2 (Homo sapiens, UniProt P29034). The experiment in a line: direct fluorescence polarization (FP), S100A2. Conditions: S100A2, 50 nM labeled foldamer, 20 mM HEPES pH 7.5, 150 mM NaCl, 1 mM CaCl2, 0.5 mM TCEP, 0.01% Tween20, quadratic fit, mean ± SEM, three technical repeats, threshold 1 mM.
Source text: as §1, §2, §3

Test [3] deals with T2, S100A5 (Homo sapiens, UniProt P33763).
T2 sequence (P33763 1-92): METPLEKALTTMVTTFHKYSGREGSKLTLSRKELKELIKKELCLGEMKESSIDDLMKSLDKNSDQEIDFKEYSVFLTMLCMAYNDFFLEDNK
The experiment in a line: direct fluorescence polarization (FP), S100A5. Conditions: for Kd: direct FP, S100A5, 50 nM labeled foldamer, 20 mM HEPES pH 7.5, 150 mM NaCl, 1 mM CaCl2, 0.5 mM TCEP, 0.01% Tween20, quadratic fit, mean ± SEM, three technical repeats, threshold 1 mM. The protocol:
(§4) HTP (and also low-throughput) measurements generally need to be validated by an orthogonal approach to eliminate experimental artifacts. […] This way, we chose WL, IF, WW, YF, IL, VL, TW, RF, RR, TI, TM, and after resynthesizing with a fluorescent label at the C-terminus (Figs. S15–S26, Table S1), the S100ome was tested against the labeled foldamers by direct fluorescence polarization (FP) (Fig. 3A). In this assay, the association of the fluorescently labeled foldamer and the S100 protein of interest is monitored, through the change in polarization of the emitted light by the fluorophore upon the binding event. In direct FP, the presence of the fluorophore might change the binding affinity of some foldamers. […] Nevertheless, we assumed that the fluorophore would affect all foldamers that target the same binding site to the same degree, because the foldamer scaffold is rigid. Defining the threshold of detection at the dissociation constant of 1 mM, we identified 87 interactions between the selected foldamer fragments and the S100ome out of 220 possible interactions (Table 1, Fig. S4-14).
To ensure that foldamer fragments bind to the hydrophobic binding groove of S100 proteins, which opens upon binding of calcium ions, we performed FP experiments on a selected S100 protein, S100A5, in the presence of EDTA and TRTK12, an S100-binding peptide of 12 amino acids. […] Based on the similarity and redundancy among the S100 family, it can be assumed that all S100 proteins bind the members of the H14 foldamer library through their hydrophobic binding pocket in a Ca^2+-dependent manner.
as §2, §3

The target of test [4] is T3, S100A8 (Homo sapiens, UniProt P05109).
T3 sequence (P05109 1-93): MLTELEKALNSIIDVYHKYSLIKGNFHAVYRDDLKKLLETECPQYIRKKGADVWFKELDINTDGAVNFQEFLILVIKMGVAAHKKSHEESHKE
The experiment in a line: direct fluorescence polarization (FP), S100A8. Conditions: S100A8, 50 nM labeled foldamer, 20 mM HEPES pH 7.5, 150 mM NaCl, 1 mM CaCl2, 0.5 mM TCEP, 0.01% Tween20, quadratic fit, mean ± SEM, three technical repeats, threshold 1 mM. The procedure: as §4, §2, §3

The target in test [5] is T4, S100A14 (Homo sapiens, UniProt Q9HCY8).
T4 sequence (Q9HCY8 1-104): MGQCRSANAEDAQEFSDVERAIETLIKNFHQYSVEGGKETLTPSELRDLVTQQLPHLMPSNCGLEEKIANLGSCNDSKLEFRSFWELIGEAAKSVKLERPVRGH
The experiment in a line: direct fluorescence polarization (FP), S100A14. The settings on record: S100A14, 50 nM labeled foldamer, 20 mM HEPES pH 7.5, 150 mM NaCl, 1 mM CaCl2, 0.5 mM TCEP, 0.01% Tween20, quadratic fit, mean ± SEM, three technical repeats, threshold 1 mM. The procedure:
as §4, §2, §3

Test [6] deals with T5, S100P (Homo sapiens, UniProt P25815).
T5 sequence (P25815 1-95): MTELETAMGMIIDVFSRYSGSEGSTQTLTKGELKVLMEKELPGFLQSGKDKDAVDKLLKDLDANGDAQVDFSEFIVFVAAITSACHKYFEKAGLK
The experiment in a line: direct fluorescence polarization (FP), S100P. The settings on record: 50 nM labeled foldamer, 20 mM HEPES pH 7.5, 150 mM NaCl, 1 mM CaCl2, 0.5 mM TCEP, 0.01% Tween20, quadratic fit, mean ± SEM, three technical repeats, threshold 1 mM.
Source text: as §1, §2, §3

Chain of S100A2 (P29034 whole entry): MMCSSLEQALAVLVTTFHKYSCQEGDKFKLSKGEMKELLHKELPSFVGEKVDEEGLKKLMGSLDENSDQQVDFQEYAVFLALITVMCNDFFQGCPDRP

In the case of `CC(C)C[C@@H](CC(=O)N[C@H]1CCCC[C@@H]1C(=O)NCC(=O)N[C@@H](CCCCNC(=O)c1ccc2c(c1)C1(OC2=O)c2ccc(O)cc2Oc2cc(O)ccc21)C(N)=O)NC(=O)[C@H]1CCCC[C@@H]1NC(=O)[C@H]1CCCC[C@@H]1NC(=O)C[C@H](Cc1c[nH]c2ccccc12)NC(=O)[C@H]1CCCC[C@@H]1N` [fWL], the dissociation constant Kd in test [1] is 53 ± 5.2 µM; in test [2] it was 11 ± 0.39 µM; in test [3] it was 14 ± 0.55 µM; in test [4], 74 ± 3.5 µM; in test [5], over 1000 µM; in test [6], 75 ± 5.8 µM. In addition, in test [3] (Fig. 3C middle panels, direct FP in the presence of EDTA), the “binding to S100A5 in the absence of Ca2+” value is listed as “loss of binding event; also recorded: unable to interact”.
In the case of `CC[C@H](C)[C@@H](CC(=O)N[C@H]1CCCC[C@@H]1C(=O)NCC(=O)N[C@@H](CCCCNC(=O)c1ccc2c(c1)C1(OC2=O)c2ccc(O)cc2Oc2cc(O)ccc21)C(N)=O)NC(=O)[C@H]1CCCC[C@@H]1NC(=O)[C@H]1CCCC[C@@H]1NC(=O)C[C@@H](NC(=O)[C@H]1CCCC[C@@H]1N)[C@@H](C)O` [fTI], the Kd in test [1] was over 1000 µM; in test [2], over 1000 µM; in test [3] it was 270 ± 14 µM; in test [4], over 1000 µM; in test [5], over 1000 µM; in test [6] it was over 1000 µM.
Take `CC(C)C[C@@H](CC(=O)N[C@H]1CCCC[C@@H]1C(=O)NCC(=O)N[C@@H](CCCCNC(=O)c1ccc2c(c1)C1(OC2=O)c2ccc(O)cc2Oc2cc(O)ccc21)C(N)=O)NC(=O)[C@H]1CCCC[C@@H]1NC(=O)[C@H]1CCCC[C@@H]1NC(=O)C[C@@H](NC(=O)[C@H]1CCCC[C@@H]1N)C(C)C` [fVL]: the Kd in test [1] was 97 ± 12 µM; in test [2], 210 ± 110 µM; in test [3] it was 110 ± 5.4 µM; in test [4], over 1000 µM; in test [5], over 1000 µM; in test [6] it was over 1000 µM.
For the compound `NC(=O)[C@H](CCCCNC(=O)c1ccc2c(c1)C1(OC2=O)c2ccc(O)cc2Oc2cc(O)ccc21)NC(=O)CNC(=O)[C@H]1CCCC[C@@H]1NC(=O)C[C@H](Cc1ccccc1)NC(=O)[C@H]1CCCC[C@@H]1NC(=O)[C@H]1CCCC[C@@H]1NC(=O)C[C@H](Cc1ccc(O)cc1)NC(=O)[C@H]1CCCC[C@@H]1N` [fYF], the Kd in test [1] is 110 ± 9.8 µM; in test [2], 26 ± 2.1 µM; in test [3] it was 32 ± 1 µM; in test [4] it was 180 ± 42 µM; in test [5] it was over 1000 µM; in test [6] it was 79 ± 5.7 µM.
